Experimental data taken from ChEMBL document CHEMBL4507297, “Data for DCP probe PF-04457845” (2021).

Legend:
[1] = molecular target: 5'-AMP-activated protein kinase catalytic subunit alpha-1 (Homo sapiens) (UniProt Q13131); conditions: Compound concentration 1000.0 nM
[2] = system: Tyrosine-protein kinase ABL1 (Homo sapiens), P00519 [F317L]; conditions: Compound concentration 1000.0 nM
[3] = molecular target: Calcium/calmodulin-dependent protein kinase kinase 2 (Homo sapiens) (UniProt Q96RR4); conditions: Compound concentration 1000.0 nM
[4] = molecular target: D(2) dopamine receptor (Homo sapiens) (UniProt P14416); conditions: Compound concentration 10.0 uM
[5] = molecular target: Homeodomain-interacting protein kinase 2 (Homo sapiens) (UniProt Q9H2X6); conditions: Compound concentration 1000.0 nM
[6] = system: Proto-oncogene tyrosine-protein kinase receptor Ret (Homo sapiens), P07949 [M918T]; conditions: Compound concentration 1000.0 nM
[7] = molecular target: Serine/threonine-protein kinase tousled-like 2 (Homo sapiens) (UniProt Q86UE8); conditions: Compound concentration 1000.0 nM
[8] = molecular target: Platelet-derived growth factor receptor beta (Homo sapiens) (UniProt P09619); conditions: Compound concentration 1000.0 nM
[9] = system: Tyrosine-protein kinase ABL1 (Homo sapiens), P00519 [F317L]; conditions: Compound concentration 1000.0 nM; remark: listed apart in the source
[10] = molecular target: Ribosomal protein S6 kinase alpha-3 (Homo sapiens) (UniProt P51812); conditions: Compound concentration 1000.0 nM
[11] = molecular target: Ribosomal protein S6 kinase alpha-1 (Homo sapiens) (UniProt Q15418); conditions: Compound concentration 1000.0 nM
[12] = molecular target: Serine/threonine-protein kinase pim-2 (Homo sapiens) (UniProt Q9P1W9); conditions: Compound concentration 1000.0 nM
[13] = molecular target: Serine/threonine-protein kinase NIM1 (Homo sapiens) (UniProt Q8IY84); conditions: Compound concentration 1000.0 nM
[14] = molecular target: Phosphatidylinositol 4,5-bisphosphate 3-kinase catalytic subunit gamma isoform (Homo sapiens) (UniProt P48736); conditions: Compound concentration 1000.0 nM
[15] = molecular target: Angiopoietin-1 receptor (Homo sapiens) (UniProt Q02763); conditions: Compound concentration 1000.0 nM
[16] = molecular target: Serine/threonine-protein kinase PknB (Mycobacterium tuberculosis) (UniProt P9WI81); conditions: Compound concentration 1000.0 nM
[17] = molecular target: Serine/threonine-protein kinase 17A (Homo sapiens) (UniProt Q9UEE5); conditions: Compound concentration 1000.0 nM
[18] = molecular target: Dual specificity protein kinase TTK (Homo sapiens) (UniProt P33981); conditions: Compound concentration 1000.0 nM
[19] = molecular target: Dual specificity mitogen-activated protein kinase kinase 6 (Homo sapiens) (UniProt P52564); conditions: Compound concentration 1000.0 nM
[20] = molecular target: Cyclin-dependent kinase 11A (Homo sapiens) (UniProt Q9UQ88); conditions: Compound concentration 1000.0 nM
[21] = molecular target: Mu-type opioid receptor (Homo sapiens) (UniProt P35372); conditions: Compound concentration 10.0 uM
[22] = molecular target: Bone morphogenetic protein receptor type-2 (Homo sapiens) (UniProt Q13873); conditions: Compound concentration 1000.0 nM
[23] = molecular target: T1, Muscarinic acetylcholine receptor M1 (Homo sapiens) (UniProt P11229); conditions: Compound concentration 10.0 uM
T1 sequence (whole entry): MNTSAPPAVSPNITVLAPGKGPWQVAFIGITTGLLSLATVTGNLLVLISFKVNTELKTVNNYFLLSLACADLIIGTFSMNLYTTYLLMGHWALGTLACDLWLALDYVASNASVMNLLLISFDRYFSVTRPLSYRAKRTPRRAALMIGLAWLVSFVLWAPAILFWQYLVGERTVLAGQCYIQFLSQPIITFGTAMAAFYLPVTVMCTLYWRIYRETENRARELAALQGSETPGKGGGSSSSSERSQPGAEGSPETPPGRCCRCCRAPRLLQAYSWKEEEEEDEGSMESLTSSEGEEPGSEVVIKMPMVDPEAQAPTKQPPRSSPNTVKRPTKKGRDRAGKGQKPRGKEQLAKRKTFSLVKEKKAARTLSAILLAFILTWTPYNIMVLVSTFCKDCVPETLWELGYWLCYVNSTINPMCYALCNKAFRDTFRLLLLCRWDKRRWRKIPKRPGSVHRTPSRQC

[24] = molecular target: Mitogen-activated protein kinase kinase kinase 3 (Homo sapiens) (UniProt Q99759); conditions: Compound concentration 1000.0 nM
[25] = system: Leucine-rich repeat serine/threonine-protein kinase 2 (Homo sapiens), Q5S007 [G2019S]; conditions: Compound concentration 1000.0 nM
[26] = molecular target: Receptor-type tyrosine-protein kinase FLT3 (Homo sapiens) (UniProt P36888); conditions: Compound concentration 1000.0 nM
[27] = molecular target: Ribosomal protein S6 kinase alpha-5 (Homo sapiens) (UniProt O75582); conditions: Compound concentration 1000.0 nM
[28] = molecular target: Mitogen-activated protein kinase 3 (Homo sapiens) (UniProt P27361); conditions: Compound concentration 1000.0 nM
[29] = molecular target: Receptor tyrosine-protein kinase erbB-2 (Homo sapiens) (UniProt P04626); conditions: Compound concentration 1000.0 nM
[30] = molecular target: T2, 5-hydroxytryptamine receptor 3A (Homo sapiens) (UniProt P46098); conditions: Compound concentration 10.0 uM
T2 sequence (whole entry): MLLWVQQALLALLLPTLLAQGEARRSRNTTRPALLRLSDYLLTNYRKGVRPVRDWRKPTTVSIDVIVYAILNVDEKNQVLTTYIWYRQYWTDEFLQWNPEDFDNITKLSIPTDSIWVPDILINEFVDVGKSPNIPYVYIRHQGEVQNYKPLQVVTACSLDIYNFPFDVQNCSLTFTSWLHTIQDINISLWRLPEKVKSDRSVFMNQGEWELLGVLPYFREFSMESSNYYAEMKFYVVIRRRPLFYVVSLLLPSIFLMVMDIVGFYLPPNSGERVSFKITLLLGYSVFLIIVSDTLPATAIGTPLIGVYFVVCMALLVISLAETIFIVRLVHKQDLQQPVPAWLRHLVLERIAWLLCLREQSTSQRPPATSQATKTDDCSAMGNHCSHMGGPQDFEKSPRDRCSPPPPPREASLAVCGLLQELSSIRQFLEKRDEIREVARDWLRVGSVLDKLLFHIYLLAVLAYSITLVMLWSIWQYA

[31] = molecular target: Fibroblast growth factor receptor 4 (Homo sapiens) (UniProt P22455); conditions: Compound concentration 1000.0 nM
[32] = molecular target: Non-receptor tyrosine-protein kinase TYK2 (Homo sapiens) (UniProt P29597); conditions: Compound concentration 1000.0 nM

Chain of Tyrosine-protein kinase ABL1 (Homo sapiens), P00519 [F317L] (P00519 whole entry F317L): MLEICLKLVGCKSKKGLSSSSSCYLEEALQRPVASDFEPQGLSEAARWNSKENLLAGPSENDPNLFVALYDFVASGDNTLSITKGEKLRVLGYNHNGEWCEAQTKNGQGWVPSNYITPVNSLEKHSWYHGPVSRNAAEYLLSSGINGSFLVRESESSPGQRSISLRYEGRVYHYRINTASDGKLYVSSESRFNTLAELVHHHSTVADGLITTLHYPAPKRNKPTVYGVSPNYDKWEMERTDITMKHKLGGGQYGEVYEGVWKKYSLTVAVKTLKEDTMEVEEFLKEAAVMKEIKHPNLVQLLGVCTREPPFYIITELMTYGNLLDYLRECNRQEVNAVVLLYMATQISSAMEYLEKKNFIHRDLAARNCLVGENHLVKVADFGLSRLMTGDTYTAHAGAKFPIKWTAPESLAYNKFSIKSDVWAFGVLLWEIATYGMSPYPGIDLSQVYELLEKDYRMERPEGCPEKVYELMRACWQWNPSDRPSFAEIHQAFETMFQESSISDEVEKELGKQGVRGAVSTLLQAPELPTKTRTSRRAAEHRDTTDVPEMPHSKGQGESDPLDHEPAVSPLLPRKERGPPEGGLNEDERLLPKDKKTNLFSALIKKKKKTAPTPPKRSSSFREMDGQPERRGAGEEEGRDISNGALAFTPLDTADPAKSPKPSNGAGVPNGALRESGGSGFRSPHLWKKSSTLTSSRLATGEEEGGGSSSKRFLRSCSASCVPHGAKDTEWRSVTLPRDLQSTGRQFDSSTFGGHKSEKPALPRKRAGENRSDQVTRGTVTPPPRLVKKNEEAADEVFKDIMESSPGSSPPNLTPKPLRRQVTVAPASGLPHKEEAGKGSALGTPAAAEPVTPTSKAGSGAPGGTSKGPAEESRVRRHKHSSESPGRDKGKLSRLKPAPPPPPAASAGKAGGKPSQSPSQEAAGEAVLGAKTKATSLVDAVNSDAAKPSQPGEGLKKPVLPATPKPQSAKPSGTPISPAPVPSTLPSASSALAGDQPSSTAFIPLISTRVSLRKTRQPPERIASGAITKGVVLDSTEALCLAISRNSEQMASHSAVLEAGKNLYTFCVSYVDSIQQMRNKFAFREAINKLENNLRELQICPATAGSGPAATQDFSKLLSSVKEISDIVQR
Chain of Serine/threonine-protein kinase tousled-like 2 (Homo sapiens) (Q86UE8 whole entry, looked up): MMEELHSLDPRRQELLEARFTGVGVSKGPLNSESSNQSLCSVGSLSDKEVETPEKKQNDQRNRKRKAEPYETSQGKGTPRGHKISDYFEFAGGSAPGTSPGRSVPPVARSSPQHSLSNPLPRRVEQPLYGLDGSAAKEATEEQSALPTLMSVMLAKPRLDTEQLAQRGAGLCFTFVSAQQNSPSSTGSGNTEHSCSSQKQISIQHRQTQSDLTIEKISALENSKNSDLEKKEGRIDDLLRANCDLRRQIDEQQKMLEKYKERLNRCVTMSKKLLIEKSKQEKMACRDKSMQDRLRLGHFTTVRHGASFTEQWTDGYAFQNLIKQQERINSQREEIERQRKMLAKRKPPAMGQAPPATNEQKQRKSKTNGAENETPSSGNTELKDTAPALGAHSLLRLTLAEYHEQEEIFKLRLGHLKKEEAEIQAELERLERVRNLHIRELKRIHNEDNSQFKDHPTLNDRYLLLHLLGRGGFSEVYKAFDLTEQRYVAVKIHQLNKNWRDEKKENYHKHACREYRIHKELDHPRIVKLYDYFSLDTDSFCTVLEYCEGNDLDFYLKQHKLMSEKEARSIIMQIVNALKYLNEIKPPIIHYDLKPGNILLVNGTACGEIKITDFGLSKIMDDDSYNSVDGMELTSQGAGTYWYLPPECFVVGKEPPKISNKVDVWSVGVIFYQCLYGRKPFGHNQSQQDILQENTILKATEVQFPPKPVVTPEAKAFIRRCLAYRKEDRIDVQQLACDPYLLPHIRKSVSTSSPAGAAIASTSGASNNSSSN
Chain of Cyclin-dependent kinase 11A (Homo sapiens) (Q9UQ88 whole entry): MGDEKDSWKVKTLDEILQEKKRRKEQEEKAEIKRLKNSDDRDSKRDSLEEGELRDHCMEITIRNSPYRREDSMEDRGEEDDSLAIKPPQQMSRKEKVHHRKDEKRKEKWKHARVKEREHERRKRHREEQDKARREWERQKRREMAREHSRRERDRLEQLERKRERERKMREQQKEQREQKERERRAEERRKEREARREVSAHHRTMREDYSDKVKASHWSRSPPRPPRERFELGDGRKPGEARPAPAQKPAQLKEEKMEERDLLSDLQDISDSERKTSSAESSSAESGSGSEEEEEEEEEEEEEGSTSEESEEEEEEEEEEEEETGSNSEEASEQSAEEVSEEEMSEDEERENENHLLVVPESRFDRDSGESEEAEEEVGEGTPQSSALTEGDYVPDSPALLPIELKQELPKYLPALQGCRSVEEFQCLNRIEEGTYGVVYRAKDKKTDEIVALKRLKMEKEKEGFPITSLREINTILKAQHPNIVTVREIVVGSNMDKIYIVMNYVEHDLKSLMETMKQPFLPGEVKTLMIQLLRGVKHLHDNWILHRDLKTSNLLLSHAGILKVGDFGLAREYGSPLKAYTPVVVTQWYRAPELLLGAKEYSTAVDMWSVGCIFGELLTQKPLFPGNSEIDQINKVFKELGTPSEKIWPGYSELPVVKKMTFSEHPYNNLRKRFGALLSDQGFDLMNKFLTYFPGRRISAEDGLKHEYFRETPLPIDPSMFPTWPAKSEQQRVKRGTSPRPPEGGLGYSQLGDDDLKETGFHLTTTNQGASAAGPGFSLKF
Chain of Receptor tyrosine-protein kinase erbB-2 (Homo sapiens) (P04626 whole entry): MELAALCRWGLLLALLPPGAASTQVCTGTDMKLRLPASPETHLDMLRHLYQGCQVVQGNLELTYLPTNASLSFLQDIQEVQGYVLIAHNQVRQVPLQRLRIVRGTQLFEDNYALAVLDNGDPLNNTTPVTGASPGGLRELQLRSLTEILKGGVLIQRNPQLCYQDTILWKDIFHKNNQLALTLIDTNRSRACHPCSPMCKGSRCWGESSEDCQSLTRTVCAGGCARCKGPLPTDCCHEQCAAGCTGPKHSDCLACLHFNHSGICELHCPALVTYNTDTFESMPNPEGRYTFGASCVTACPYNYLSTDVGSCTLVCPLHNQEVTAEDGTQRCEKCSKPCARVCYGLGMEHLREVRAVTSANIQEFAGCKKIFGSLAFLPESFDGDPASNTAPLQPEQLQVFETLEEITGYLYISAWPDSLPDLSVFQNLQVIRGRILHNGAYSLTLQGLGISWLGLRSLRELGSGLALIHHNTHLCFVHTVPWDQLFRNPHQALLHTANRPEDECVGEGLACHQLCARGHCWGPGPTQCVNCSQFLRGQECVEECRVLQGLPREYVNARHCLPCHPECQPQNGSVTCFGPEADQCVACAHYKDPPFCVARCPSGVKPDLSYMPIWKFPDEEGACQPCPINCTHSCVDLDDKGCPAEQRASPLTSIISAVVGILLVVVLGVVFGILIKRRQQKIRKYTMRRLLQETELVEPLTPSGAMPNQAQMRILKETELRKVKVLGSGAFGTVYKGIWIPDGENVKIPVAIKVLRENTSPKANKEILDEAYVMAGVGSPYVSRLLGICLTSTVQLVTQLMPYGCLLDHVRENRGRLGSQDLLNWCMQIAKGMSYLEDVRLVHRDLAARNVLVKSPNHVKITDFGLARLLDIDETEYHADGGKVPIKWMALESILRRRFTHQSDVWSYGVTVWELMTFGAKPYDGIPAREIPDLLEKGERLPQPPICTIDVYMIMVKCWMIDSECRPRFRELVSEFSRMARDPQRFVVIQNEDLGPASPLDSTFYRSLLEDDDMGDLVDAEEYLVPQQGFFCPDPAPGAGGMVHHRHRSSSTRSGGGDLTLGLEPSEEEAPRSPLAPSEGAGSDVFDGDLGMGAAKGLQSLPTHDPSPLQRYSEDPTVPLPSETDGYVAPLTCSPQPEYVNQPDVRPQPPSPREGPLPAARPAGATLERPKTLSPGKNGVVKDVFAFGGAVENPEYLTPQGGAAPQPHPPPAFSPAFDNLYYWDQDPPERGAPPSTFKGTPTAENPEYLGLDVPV
Chain of Serine/threonine-protein kinase NIM1 (Homo sapiens) (Q8IY84 whole entry, canonical isoform): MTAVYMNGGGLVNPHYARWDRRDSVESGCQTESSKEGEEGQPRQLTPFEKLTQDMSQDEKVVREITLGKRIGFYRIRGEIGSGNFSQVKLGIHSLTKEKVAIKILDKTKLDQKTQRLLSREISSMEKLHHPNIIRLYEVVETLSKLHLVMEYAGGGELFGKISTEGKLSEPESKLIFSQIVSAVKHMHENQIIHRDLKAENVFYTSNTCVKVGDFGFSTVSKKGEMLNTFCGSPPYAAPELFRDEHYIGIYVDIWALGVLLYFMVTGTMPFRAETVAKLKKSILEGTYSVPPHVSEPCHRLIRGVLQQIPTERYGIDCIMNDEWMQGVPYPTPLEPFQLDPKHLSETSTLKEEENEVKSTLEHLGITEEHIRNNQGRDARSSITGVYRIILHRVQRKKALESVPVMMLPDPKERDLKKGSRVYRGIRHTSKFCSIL
Chain of Mu-type opioid receptor (Homo sapiens) (P35372 whole entry): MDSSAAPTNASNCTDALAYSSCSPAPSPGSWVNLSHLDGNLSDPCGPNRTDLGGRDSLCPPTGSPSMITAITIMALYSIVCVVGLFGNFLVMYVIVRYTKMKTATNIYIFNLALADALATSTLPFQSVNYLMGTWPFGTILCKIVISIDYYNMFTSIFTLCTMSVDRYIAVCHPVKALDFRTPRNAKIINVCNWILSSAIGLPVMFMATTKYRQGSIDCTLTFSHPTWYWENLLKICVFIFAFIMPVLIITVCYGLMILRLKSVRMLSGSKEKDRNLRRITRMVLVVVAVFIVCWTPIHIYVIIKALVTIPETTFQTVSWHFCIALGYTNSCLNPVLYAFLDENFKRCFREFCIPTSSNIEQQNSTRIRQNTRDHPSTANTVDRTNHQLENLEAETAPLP

O=C(Nc1cccnn1)N1CCC(=Cc2cccc(Oc3ccc(C(F)(F)F)cn3)c2)CC1
inactive: residual activity [1] 88% | residual activity [2] 100% | residual activity [3] 73% | inhibition [4] 1.84% | residual activity [5] 100% | residual activity [6] 80% | residual activity [7] 100% | residual activity [8] 97% | residual activity [9] 94% | residual activity [10] 100% | residual activity [11] 100% | residual activity [12] 97% | residual activity [13] 100% | residual activity [14] 100% | residual activity [15] 94% | residual activity [16] 95% | residual activity [17] 79% | residual activity [18] 100% | residual activity [19] 100% | residual activity [20] 82% | inhibition [21] 17.5% | residual activity [22] 100% | inhibition [23] 29.5% | residual activity [24] 100% | residual activity [25] 100% | residual activity [26] 100% | residual activity [27] 71% | residual activity [28] 100% | residual activity [29] 72% | inhibition [30] 10.7% | residual activity [31] 100% | residual activity [32] 100%

O=C(Nc1cccnn1)N1CC(C/C=C/c2cncc(Oc3ccc(C(F)(F)F)cn3)n2)C1
inactive: residual activity [1] 100% | residual activity [2] 58% | residual activity [3] 100% | inhibition [4] 13.7% | residual activity [5] 89% | residual activity [6] 96% | residual activity [7] 100% | residual activity [8] 81% | residual activity [9] 67% | residual activity [10] 73% | residual activity [11] 92% | residual activity [12] 100% | residual activity [13] 76% | residual activity [14] 100% | residual activity [15] 84% | residual activity [16] 87% | residual activity [17] 100% | residual activity [18] 100% | residual activity [19] 100% | residual activity [20] 100% | inhibition [21] 1.18% | residual activity [22] 76% | inhibition [23] -6.78% | residual activity [24] 79% | residual activity [25] 100% | residual activity [26] 100% | residual activity [27] 100% | residual activity [28] 99% | residual activity [29] 83% | inhibition [30] -0.28% | residual activity [31] 100% | residual activity [32] 79%
